Target: T1, Leukotriene, Cysteinyl CysLT1 (Cavia porcellus, UniProt Q2NNR5)
T1 construct: from tissue; host or cells: guinea pig lung membrane
T1 sequence (Q2NNR5 1-340): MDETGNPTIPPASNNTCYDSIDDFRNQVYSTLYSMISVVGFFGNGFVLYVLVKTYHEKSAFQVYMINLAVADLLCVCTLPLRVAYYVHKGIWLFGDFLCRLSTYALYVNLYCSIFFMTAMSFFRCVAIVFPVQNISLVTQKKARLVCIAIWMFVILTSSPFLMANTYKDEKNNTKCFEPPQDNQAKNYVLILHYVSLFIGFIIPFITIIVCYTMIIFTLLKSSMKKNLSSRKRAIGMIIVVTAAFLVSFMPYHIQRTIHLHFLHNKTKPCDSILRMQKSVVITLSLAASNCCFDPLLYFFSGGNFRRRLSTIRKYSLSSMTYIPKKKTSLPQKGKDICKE
Test: receptor radio-ligand-binding assay (Tritiated LTD4 as the ligand), Guinea pig lung membrane
Conditions: 0.5 h, 0.2 nM 3H LTD4, Guinea pig lung membrane; for inhibition at 0.001 µM: 1 nM test compound, read-out: % Inhbition (in nM) 1; for inhibition at 0.003 µM: 3 nM test compound, read-out: % Inhbition (in nM) 3; for inhibition at 0.01 µM: 10 nM test compound, read-out: % Inhbition (in nM) 10
Procedure: The primary in-vitro biological screening for the compounds carried-out involving receptor radio-ligand-binding assay (Tritiated LTD4 as the ligand) by known methods described in literature [a). Mong et al. European Journal of Pharmacology (102); 1984 1-11b). Jones et al; Journal of Physiology & Pharmacology (73); 1994, 191-201 c). MDS Pharma Services: 250460 Leukotriene, Cysteinyl CysLT1]. Accordingly, Guinea pig lung membrane (100 ug) is incubated with 0.2 nM 3H LTD4 in presence of Reference Standard/Test item/Vehicle Control. Non Specific Binding is determined by incubating the membrane with 0.2 nM 3H LTD4 in presence of 1 uM of unlabeled LTD4. The samples are incubated at 26° C. for 30 minutes and are vacuum filtered on a membrane to separate the bound and free radioligand. The membrane is counted in a liquid scintillation counter to calculate the bound radioactivity. Specific Binding in Vehicle treated and Reference Standard/Test item treated set is compared to evaluate the % Inhibition values. Some of the compounds have shown >50% inhibition in the presence of ≦3 nano-molar concentration of the compounds of present invention as shown in the following table.

Work on CS(=O)(=O)NC(CCc1ccccc1C(=O)O)c1cccc(/C=C/c2ccc3ccc(Cl)cc3n2)c1 (stereo not drawn) [Ia.11, 2-(3-{3-[(E)-2-(7-Chloro-quinolin-2-yl)-vinyl]phenyl}-3-methanesulfonylamino-propyl)-benzoic acid] yielded an inhibition at 0.001 µM of 46%, an inhibition at 0.003 µM of 56% and an inhibition at 0.01 µM of 71%.

Compound O=C(O)c1ccccc1CCC(NC(=O)C(F)(F)F)c1cccc(/C=C/c2ccc3ccc(Cl)cc3n2)c1 (stereo not drawn) [Ia.12, 2-[3-{3-[(E)-2-(7-Chloro-quinolin-2-yl)-vinyl]-phenyl}-3-(2,2,2-trifluoro-acetylamino)-propyl]-benzoic acid] has an inhibition at 0.001 µM of 5%, an inhibition at 0.003 µM of 35% and an inhibition at 0.01 µM of 56%.

Compound CCN(CC)C(=O)c1ccccc1CCC(NC(=O)c1ccccc1C(=O)O)c1cccc(/C=C/c2ccc3ccc(Cl)cc3n2)c1 (stereo not drawn) [Ia.38, N-[1-{3-[(E)-2-(7-Chloro-quinolin-2-yl)-vinyl]-phenyl}-3-(2-diethylcarbamoyl-phenyl)-propyl]-phthalamic acid] has an inhibition at 0.001 µM of 0.3%, an inhibition at 0.003 µM of 51% and an inhibition at 0.01 µM of 69%.

In the case of CCN(CC)C(=O)c1ccccc1CCC(NC(=O)c1ccccc1C(=O)OC)c1cccc(/C=C/c2ccc3ccc(Cl)cc3n2)c1 (stereo not drawn) [Ia.48, N-[1-{3-[(E)-2-(7-Chloro-quinolin-2-yl)-vinyl]-phenyl}-3-(2-diethylcarbamoyl-phenyl)-propyl]-phthalamic acid methyl ester], the inhibition at 0.001 µM is reported as 35%, the inhibition at 0.003 µM is reported as 56% and the inhibition at 0.01 µM is reported as 65%.

Compound O=C(N[C@H](CCc1ccccc1C(=O)O)c1cccc(/C=C/c2ccc3ccc(Cl)cc3n2)c1)c1ccco1 [Ia.54, 2-{(R)-3-{3-[(E)-2-(7-Chloro-quinolin-2-yl)-vinyl]-phenyl}-3-[(furan-2-carbonyl)-amino]-propyl}-benzoic acid] has an inhibition at 0.001 µM of 50%, an inhibition at 0.003 µM of 60% and an inhibition at 0.01 µM of 74%.

With O=C(N[C@@H](CCc1ccccc1C(=O)O)c1cccc(/C=C/c2ccc3ccc(Cl)cc3n2)c1)c1cccs1 [Ia.69, 2-{(S)-3-{3-[(E)-2-(7-Chloro-quinolin-2-yl)-vinyl]-phenyl}-3-[(thiophene-2-carbonyl)-amino]-propyl}-benzoic acid] the inhibition at 0.001 µM was 34%, the inhibition at 0.003 µM was 56% and the inhibition at 0.01 µM was 72%.

O=C(O)c1ccccc1C(=O)NC(CCc1ccccc1C(=O)N1CCCC1)c1cccc(/C=C/c2ccc3ccc(Cl)cc3n2)c1 (stereo not drawn) [Ia.73, N-{1-{3-[(E)-2-(7-Chloro-quinolin-2-yl)-vinyl]-phenyl}-3-[2-(pyrrolidine-1-carbonyl)-phenyl]-propyl}-phthalamic acid] showed an inhibition at 0.001 µM of 40%, an inhibition at 0.003 µM of 67% and an inhibition at 0.01 µM of 72%.

With CN(C(=O)c1ccco1)C(CCc1ccccc1C(=O)O)c1cccc(/C=C/c2ccc3ccc(Cl)cc3n2)c1 (stereo not drawn) [Ia.76, 2-{3-{3-[(E)-2-(7-Chloro-quinolin-2-yl)-vinyl]-phenyl}-3-[(furan-2-carbonyl)-methyl-amino]-propyl}-benzoic acid] the inhibition at 0.001 µM was 37%, the inhibition at 0.003 µM was 61% and the inhibition at 0.01 µM was 67%.

Work on COC(=O)c1ccccc1CCC(NC(=O)C1=C(C(=O)O)CCC1)c1cccc(/C=C/c2ccc3ccc(Cl)cc3n2)c1 (stereo not drawn) [Ia.80, 2-(3-[(2-Carboxy-cyclopent-1-enecarbonyl)-amino]-3-{3-[(E)-2-(7-chloro-quinolin-2-yl)-vinyl]-phenyl}-propyl)-benzoic acid methyl ester] yielded an inhibition at 0.001 µM of 43%, an inhibition at 0.003 µM of 64% and an inhibition at 0.01 µM of 65%.

CC(=O)OC(CSc1ccccc1C(=O)O)c1cccc(/C=C/c2ccc3ccc(Cl)cc3n2)c1 (stereo not drawn) [Ia.118, 2-(2-Acetoxy-2-{3-[(E)-2-(7-chloro-quinolin-2-yl)-vinyl]-phenyl}-ethylsulfanyl)-benzoic acid] gave an inhibition at 0.001 µM of 33%, an inhibition at 0.003 µM of 46% and an inhibition at 0.01 µM of 52%.
